12 compounds from PubChem BioAssay (NCI) can be followed below.

Some test systems named below: SK-MEL-2 melanoma; SK-OV-3 ovarian; NCI-H522 lung; OVCAR-5 ovarian; LOX IMVI melanoma; SW-620 colon; RPMI-8226 leukemia; MCF7 breast; NCI/ADR-RES ovarian.
Holding throughout (assay): inhibition of tumour cell growth, NCI panel, 48 h

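Assay format: 96-well plates, 48-hour exposure. GI50: concentration for 50% inhibition of growth. TGI: total growth inhibition.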

`CCOC(=O)C1SC(=Nc2ccc(Cl)c(Cl)c2)N=C1C` (stereo unspecified): the TGI was greater than 100 µM with SK-MEL-2 melanoma; greater than 100 µM in the experiment with SK-OV-3 ovarian; greater than 100 µM in the experiment with NCI-H522 lung; greater than 100 µM in the experiment on OVCAR-5 ovarian; 63.9 µM in the experiment on LOX IMVI melanoma; greater than 100 µM in the experiment on SW-620 colon. In the experiment with RPMI-8226 leukemia, this compound showed a TGI of 56.9 µM.

For the compound `Cc1cc(=O)oc2cc(OCc3c(F)cccc3Cl)ccc12`, the TGI in the experiment on SK-MEL-2 melanoma, in the experiment with NCI-H522 lung, with OVCAR-5 ovarian, in the experiment with LOX IMVI melanoma and in the experiment on MCF7 breast was greater than 100 µM in each case.

For the compound `O=C(OCC1CO1)c1cccs1` (stereo unspecified), the TGI with SK-MEL-2 melanoma is greater than 100 µM; in the experiment on SK-OV-3 ovarian, greater than 100 µM; in the experiment with NCI-H522 lung, 36.9 µM; in the experiment with OVCAR-5 ovarian, greater than 100 µM; with LOX IMVI melanoma, greater than 100 µM; in the experiment on SW-620 colon, greater than 100 µM. The compound also displayed a TGI in the experiment on RPMI-8226 leukemia greater than 100 µM.

Take `Nc1c(C(=O)Nc2ccccc2)[n+]([O-])c2ccccc2[n+]1[O-]`: the TGI is 33.5 µM with SK-MEL-2 melanoma; greater than 100 µM in the experiment with SK-OV-3 ovarian; 4.4 µM in the experiment on NCI-H522 lung; 37.5 µM in the experiment with OVCAR-5 ovarian; 28.6 µM in the experiment with LOX IMVI melanoma; 38.3 µM in the experiment on SW-620 colon. Also, the TGI in the experiment with RPMI-8226 leukemia was greater than 100 µM.

Take `CO[C@@H]1CC(=O)C2(CC(=O)O[C@@H]2/C=C(\C)CCC=C(C)C)C[C@@H]1O` (stereo partly specified): the GI50 was 1.39 µM in the experiment with SK-MEL-2 melanoma; 1.62 µM with SK-OV-3 ovarian; 1.82 µM with NCI-H522 lung; 0.769 µM in the experiment with OVCAR-5 ovarian; 0.634 µM with LOX IMVI melanoma; 0.487 µM with NCI/ADR-RES ovarian. The values for the GI50 with MCF7 breast, in the experiment with SW-620 colon and in the experiment with RPMI-8226 leukemia were 0.199 µM, 0.754 µM and 0.118 µM, respectively. Also, the TGI is 4.88 µM in the experiment on SK-MEL-2 melanoma; 5.3 µM with SK-OV-3 ovarian; greater than 50 µM in the experiment on NCI-H522 lung; 1.96 µM in the experiment with OVCAR-5 ovarian; 1.57 µM in the experiment on LOX IMVI melanoma; 1.51 µM in the experiment on NCI/ADR-RES ovarian. Besides, the figures for the TGI in the experiment on MCF7 breast, in the experiment on SW-620 colon and in the experiment with RPMI-8226 leukemia were 1.17 µM, greater than 50 µM and 0.432 µM, respectively.

For the compound `Cc1cccc(C2=NC(C)(C)C(C)(C)N=C2c2cccc(C)n2)n1`, the TGI in the experiment with SK-MEL-2 melanoma, in the experiment on SK-OV-3 ovarian, in the experiment on NCI-H522 lung, with OVCAR-5 ovarian, in the experiment with LOX IMVI melanoma and in the experiment on SW-620 colon was greater than 100 µM each time. In the experiment on RPMI-8226 leukemia, this compound displayed a TGI greater than 100 µM.

In the case of `C=CCC(N[C@H](CO)c1ccccc1)c1cn(C(=O)OCC)c2ccccc12` (stereo partly specified), the GI50 in the experiment with SK-MEL-2 melanoma was 18.4 µM; in the experiment on SK-OV-3 ovarian, 31.3 µM; with NCI-H522 lung, 15.2 µM; in the experiment on OVCAR-5 ovarian it was 16.3 µM; in the experiment with LOX IMVI melanoma, 15.9 µM; in the experiment on NCI/ADR-RES ovarian, 15.9 µM. In addition, the GI50 is 35.2 µM with MCF7 breast, 25.6 µM with SW-620 colon and 70.2 µM in the experiment with RPMI-8226 leukemia. Also, the TGI in the experiment on SK-MEL-2 melanoma was 42 µM; with SK-OV-3 ovarian it was greater than 100 µM; in the experiment with NCI-H522 lung it was 32.1 µM; with OVCAR-5 ovarian, 33.8 µM; in the experiment with LOX IMVI melanoma, 30.1 µM; in the experiment on NCI/ADR-RES ovarian, 32.4 µM. Besides, the figures for the TGI in the experiment on MCF7 breast, in the experiment on SW-620 colon and in the experiment on RPMI-8226 leukemia were greater than 100 µM, 52.2 µM and greater than 100 µM, respectively.

On to `CC(C)(C)C(=O)ON1N=NC2C3CC(OCc4ccccc4)(OCc4ccccc4)C(O3)C21` (stereo unspecified), for which the TGI with SK-MEL-2 melanoma is 34.3 µM; with SK-OV-3 ovarian it was greater than 100 µM; in the experiment on OVCAR-5 ovarian, greater than 100 µM; with LOX IMVI melanoma, 32.8 µM; in the experiment on SW-620 colon, 50.7 µM; with RPMI-8226 leukemia it was 49.4 µM.

As to `C/C(=N\N=C(/[Se])N1CC2CCC(CC2)C1)c1ccccn1`, the TGI in the experiment with SK-MEL-2 melanoma was determined as 0.716 µM; with SK-OV-3 ovarian, 2.09 µM; with NCI-H522 lung it was 0.615 µM; in the experiment with OVCAR-5 ovarian, 2.51 µM; with LOX IMVI melanoma it was 0.64 µM; with MCF7 breast, 2.8 µM. Moreover, the TGI is 0.608 µM in the experiment on SW-620 colon and 0.22 µM in the experiment with RPMI-8226 leukemia.

Take `Cc1ccc(SC2=CC(=O)c3nc4ccccc4c4ccnc2c34)cc1`: the GI50 is 21.2 µM in the experiment on SK-MEL-2 melanoma; greater than 100 µM in the experiment on SK-OV-3 ovarian; 16.3 µM in the experiment on NCI-H522 lung; greater than 79.9 µM in the experiment with OVCAR-5 ovarian; 28.5 µM in the experiment with LOX IMVI melanoma; 27.9 µM with NCI/ADR-RES ovarian. In addition, the GI50 in the experiment on MCF7 breast is 26.8 µM; in the experiment with SW-620 colon it was 23.1 µM; with RPMI-8226 leukemia, 30.1 µM. Further, the TGI is 58.2 µM in the experiment on SK-MEL-2 melanoma; greater than 100 µM in the experiment with SK-OV-3 ovarian; 38.4 µM in the experiment with NCI-H522 lung; greater than 100 µM in the experiment on OVCAR-5 ovarian; greater than 100 µM with LOX IMVI melanoma; greater than 95.4 µM in the experiment with NCI/ADR-RES ovarian. For the same compound, the TGI is greater than 68.6 µM in the experiment with MCF7 breast, 47.9 µM in the experiment on SW-620 colon and greater than 100 µM in the experiment with RPMI-8226 leukemia.

With `O=C1Nc2cc([N+](=O)[O-])ccc2NC1/C(=N\Nc1ccccc1)C(O)c1cccc([N+](=O)[O-])c1` (stereo unspecified), the TGI with SK-MEL-2 melanoma, with SK-OV-3 ovarian, in the experiment on NCI-H522 lung, with OVCAR-5 ovarian, in the experiment with LOX IMVI melanoma and in the experiment on SW-620 colon was greater than 100 µM each time. In the experiment with RPMI-8226 leukemia, this compound yielded a TGI greater than 100 µM.

As to `Cc1c2c[n+](C(C)C)ccc2c(C)c2c1[nH]c1ccccc12`, the GI50 in the experiment with SK-MEL-2 melanoma is 2.89 µM; with SK-OV-3 ovarian, 3.19 µM; in the experiment on NCI-H522 lung, 2.26 µM; with OVCAR-5 ovarian, 5.95 µM; with LOX IMVI melanoma, 9.17 µM; with NCI/ADR-RES ovarian it was 56.5 µM. Further, the GI50 in the experiment on MCF7 breast is 1.85 µM; with SW-620 colon, 3.63 µM; with RPMI-8226 leukemia, 1.82 µM. For the same compound, the TGI in the experiment on SK-MEL-2 melanoma is 9.81 µM; with SK-OV-3 ovarian, 39.8 µM; with NCI-H522 lung it was 11.4 µM; in the experiment on OVCAR-5 ovarian, greater than 100 µM; in the experiment on LOX IMVI melanoma, 32.1 µM; with NCI/ADR-RES ovarian, greater than 100 µM. Also, the TGI with MCF7 breast was found to be 14.8 µM; with SW-620 colon it was 49.7 µM; in the experiment with RPMI-8226 leukemia, 13.1 µM.
